Like-named read-outs stand apart in the source and are kept apart here. Where only a bound is given, the exact number is not on record here.

Results on 20 compounds are retold here after paper PMC11046913, “Activation of retinoic acid-related orphan receptor γ(t) by parabens and benzophenone UV-filters” (Toxicology, 2022).

Data set [1] concerns the target T1, RORγ (Mus musculus, UniProt P51450).
T1 sequence (P51450 1-516): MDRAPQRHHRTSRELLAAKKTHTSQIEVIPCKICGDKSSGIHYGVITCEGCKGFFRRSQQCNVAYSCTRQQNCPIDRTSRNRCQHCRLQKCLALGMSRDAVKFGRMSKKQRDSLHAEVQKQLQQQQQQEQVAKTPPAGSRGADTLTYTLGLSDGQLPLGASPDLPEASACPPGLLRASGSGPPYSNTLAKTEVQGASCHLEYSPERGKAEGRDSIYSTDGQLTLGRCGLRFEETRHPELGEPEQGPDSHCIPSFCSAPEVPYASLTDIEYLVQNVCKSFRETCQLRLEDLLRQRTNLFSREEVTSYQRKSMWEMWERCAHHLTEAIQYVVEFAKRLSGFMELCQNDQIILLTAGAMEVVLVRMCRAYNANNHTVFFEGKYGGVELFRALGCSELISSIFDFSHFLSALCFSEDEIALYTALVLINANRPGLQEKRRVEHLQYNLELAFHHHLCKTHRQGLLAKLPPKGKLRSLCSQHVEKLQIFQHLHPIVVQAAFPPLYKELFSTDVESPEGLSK
In words: cell-based. Type of data set: cell-based. The note with it: for RORγ agonistic activity (in words): screening at 10 μM; for activation at 1 µM: read-out: % increase in RORγ activity (mean ± SD), individual agonist at 1 μM; for activation at 2.5 µM: read-out: % increase in RORγ activity (mean ± SD), individual agonist at 2.5 μM; for fold induction at 10 µM: read-out: RORγ-dependent transactivation compared to the DMSO vehicle control. How it is done: Both cell lines were cultured under standard conditions (37 °C, 5% CO2).

In data set [2] the test system is IL-17A mRNA in EL4 T-cells over expressing human RORγt. Put plainly: IL-17A mRNA expression (qRT-PCR) in EL4 cells overexpressing human RORγt. Type of data set: cell-based, murine. The settings on record: 5 h, PMA/ionomycin-stimulated. How it is done: (§1) EL4 cells were transfected with plasmid encoding the human variant of RORγt by electroporation and seeded into 12-well plates (500,000 cells and 1.6 μg plasmid in 2 mL cultivation medium per well). Transfection was performed using the NeonTM transfection system (Invitrogen, Carlsbad, CA, USA) as follows: 1.8 × 10^6 cells and 6 μg plasmid in 100 μL buffer R were exposed to one pulse (1080 V, 50 ms) utilizing a 100 μL gold tip. After incubation for 16 h, the cells were treated for 5 h with the indicated test compounds as well as PMA and ionomycin at a total concentration of 0.253 nM and 31.3 nM, respectively. Subsequently, cells were centrifuged at 200 g for 3 min and total RNA was isolated from the pellet with the RNeasy Mini Kit according to the manufacturer’s protocol (Qiagen, Venlo, Netherlands). Contamination with genomic DNA was prevented by on-column DNA digestion using DNase I (RNase-free, Qiagen). RNA (1 μg) was reverse transcribed to complementary DNA (cDNA) utilizing the Takara PrimeScript RT Reagent Kit, according to the manufacturer’s protocol (Takara Bio Inc., Kusatsu, Japan). Finally, quantitative polymerase chain reaction (qPCR) was performed using Kapa SYBER® Fast qPCR Master Mix (KAPA Biosystems, Wilmington, MA, USA) as described earlier ([Inderbinen et al., 2020]). The following primers were used: peptidylprolyl isomerase A (PPIA): forward 5’-[…]-3’, reverse 5’-[…]-3’; IL-17A: forward 5’-[…] CCAA-3’, reverse 5’-[…]-3’; IL-22: forward 5’-[…]-3’, reverse 5’-[…]-3’. Primer quality was verified by analysis of melting curves and inspection of the PCR product on an agarose gel (single band at the expected size of the amplified sequence). Resulting CT values were normalized to values of the endogenous control gene PPIA and compared to control according to the 2^−ΔΔCT method ([Schmittgen and Livak, 2008]).
On the technique in general: Real-time PCR tracks product formation cycle by cycle.

Data set [3] deals with IL-22 mRNA in EL4 T-cells over expressing human RORγt. In words: IL-22 mRNA expression (qRT-PCR) in EL4 cells overexpressing human RORγt. Format: cell-based, murine. The note with it: 5 h, PMA/ionomycin-stimulated. How it is done: as §1
Data set [4] concerns the target T1, RORγ. The note with it: in presence of 1.25 μM SR2211, test compound at different concentrations.
Procedure: The CHO RORγ Tet-on cell line used in this study is a well-established reporter gene system to assess RORγ agonists and antagonists. […] CHO RORγ Tet-on cells were seeded in 96-well plates at a density of 2000 cells/100 μL culture medium, followed by incubation overnight. Subsequently, the medium was renewed, and the respective test compound dissolved in dimethylsulfoxide (DMSO) was added to the wells using a HP D300 Digital Liquid Dispenser with T8 dispense heads (HP Inc., Palo Alto, CA, USA). […] Two hours later, RORγ expression was induced by adding doxycycline at 1 μM final concentration. All samples were adjusted to contain the same volume and concentration of DMSO. After 16 h of incubation, cells were washed with PBS, lysed with 20 μL Tropix lysis solution (Applied Biosystems, Foster City, CA, USA) containing 1 mM dithiothreitol and frozen at − 80 °C for at least 20 min. […] Measured values were normalized to values from control cells treated with DMSO vehicle control only and induced with doxycycline.
Cells were simultaneously exposed to SR2211 and a given test compound at different concentrations or vehicle control.
Details of data set [5]: method as in CIR, 2008. The note with it: relatively long alkyl side chain; ref CIR, 2008; cited from earlier work.
A further data set concerns estrogenic activity. The note with it: cited from earlier work.
The conditions of data set [6]: cited from earlier work.
On the set-up of data set [7]: method as in Benson et al., 2005; Fernandez et al., 2002. The note with it: human; ref Benson et al., 2005; Fernandez et al., 2002; cited from earlier work.
The mark [8] stands for this setting: only at high micromolar concentrations, ref Charles and Darbre, 2009.

For the compound `Cc1ccc(Sc2ccc(C(=O)c3ccccc3)cc2)cc1` [4-(4-methylphenylthio)benzophenone], the “RORγ agonistic activity (in words)” value on RORγ [1] was “agonistic activity”.

On to `O=C(c1ccc(O)cc1O)c1ccc(O)cc1O` [benzophenone-2], for which the “RORγ agonistic activity (in words)” value on RORγ [1] is listed as “agonistic activity”.

For the compound `O=C(Nc1ccc(C(O)(C(F)(F)F)C(F)(F)F)cc1)c1ccccc1Cl` [SR0987, reference compound], in data set [2] (10 μM, vs vehicle control), the IL-17A transcription result is on record as “efficient modulation”. Also, the IL-22 transcription entry in data set [3] (10 μM, vs vehicle control) is listed as “significantly increased transcription”.

Consider `COc1ccc(C(=O)c2ccc(C)cc2)c(O)c1` [Benzophenone-10, benzophenone-10], for which the “RORγ-dependent transactivation compared to the DMSO vehicle control” value on RORγ [1] (first screening, 10 μM) is recorded as “more than 1.5 fold”. At RORγ [1], the activation at 1 µM was found to be 15 ± 5%, the activation at 2.5 µM was determined as 63 ± 4% and the “RORγ agonistic activity (in words)” value is “agonistic activity”. The IL-17A transcription entry in data set [2] (10 μM, vs vehicle control) is listed as “elevated expression”. In data set [3] (10 μM, vs vehicle control), the IL-22 transcription entry is given as “tended to increase”. For the same compound, at RORγ [4], the “Reversal of the SR2211-mediated inhibition of RORγ transactivation” value was “significant increase”.

For `Cc1ccc(OC(=O)c2ccccc2)cc1` [4-Methylphenylbenzoate], at RORγ [1], the activation at 1 µM came out at 6 ± 9% and the “RORγ agonistic activity (in words)” value is “significant agonistic activity”. The IL-17A transcription entry in data set [2] (10 μM, vs vehicle control) is recorded as “did not significantly enhance”. In addition, the IL-22 transcription entry in data set [3] (10 μM, vs vehicle control) is listed as “did not significantly enhance”. The “Reversal of the SR2211-mediated inhibition of RORγ transactivation” value on RORγ [4] is “failed to do so”.

As for `O=C(OCc1ccccc1)c1ccc(O)cc1` [Benzylparaben, benzylparaben], on RORγ [1], the activation at 1 µM is 13 ± 4%, the activation at 2.5 µM is 45 ± 2% and the fold induction at 10 µM is > 1.5. Further, the IL-17A transcription result in data set [2] (10 μM, vs vehicle control) was “a trend was detected”. For the same compound, in data set [3] (10 μM, vs vehicle control), the IL-22 transcription result is reported as “tended to increase”. Moreover, the “Reversal of the SR2211-mediated inhibition of RORγ transactivation” value at RORγ [4] is “significant increase”.

As for `CCCCCCOC(=O)c1ccc(O)cc1` [Hexylparaben, hexylparaben], at RORγ [1], the activation at 2.5 µM is 83 ± 8% and the fold induction at 10 µM was > 1.5. In addition, in data set [2] (10 μM, vs vehicle control), the IL-17A transcription result is “elevated expression”. In addition, in data set [3] (10 μM, vs vehicle control), the IL-22 transcription result was “significantly increased transcription”. Moreover, at RORγ [4], the “Reversal of the SR2211-mediated inhibition of RORγ transactivation” value is recorded as “significant increase”. The solubility result in data set [5] is reported as “reduced solubility”.

Take `O=C(c1ccc(O)cc1)c1ccc(O)cc1` [4,4’-dihydroxybenzophenone]: at RORγ [1], the “RORγ agonistic activity (in words)” value was “agonistic activity”.

Turning to `COc1ccc(C(=O)c2ccc(OC)cc2O)c(O)c1` [Benzophenone-6, benzophenone-6], at RORγ [1], the activation at 1 µM was -1 ± 5%, the fold induction at 10 µM is > 1.5 and the “RORγ agonistic activity (in words)” value is “agonistic activity”.

Take `CCc1ccc(N(CC(C)C)S(=O)(=O)c2ccc(OCC3CCOCC3)c(CO)c2)cc1` [GSK2981278, reference compound]: the IL-17A transcription entry in data set [2] (1 μM) was “efficient modulation”. The IL-22 transcription result in data set [3] (1 μM) was “efficient modulation”.

For the compound `O=c1c(-c2ccc(O)cc2)coc2cc(O)cc(O)c12` [genistein, reference compound], in data set [2] (10 μM, vs vehicle control), the IL-17A transcription result is “efficient modulation”. Further, in data set [3] (10 μM, vs vehicle control), the IL-22 transcription result is given as “significantly increased transcription”.

In the case of `O=C(c1ccc(O)cc1)c1ccc(O)cc1O` [2,4,4’-trihydroxybenzophenone], the “RORγ agonistic activity (in words)” value on RORγ [1] is listed as “agonistic activity”. The estrogenic activity result with estrogenic activity (ref Suzuki et al., 2005) is “weak estrogenic activity”.

Regarding `COc1ccc(C(=O)CC(=O)c2ccc(C(C)(C)C)cc2)cc1` [avobenzone], in data set [6] (ref Simeoni et al., 2004, Weigmann et al., 2001), the skin penetration result is “limited skin penetration”.

Regarding `O=C(OCc1ccccc1)c1ccccc1` [Benzylbenzoate], on RORγ [1], the activation at 1 µM stood at 16 ± 12% and the “RORγ agonistic activity (in words)” value is on record as “significant agonistic activity”. For the same compound, in data set [2] (10 μM, vs vehicle control), the IL-17A transcription entry is “did not significantly enhance”. Moreover, in data set [3] (10 μM, vs vehicle control), the IL-22 transcription result was “did not significantly enhance”. The “Reversal of the SR2211-mediated inhibition of RORγ transactivation” value at RORγ [4] is “restore the suppressed RORγ activity in a concentration-dependent manner”. Further, in the data set on estrogenic activity (setting [8]), the estrogenic activity result is on record as “Estrogenic activity”.

As to `CCCCOC(=O)c1ccc(O)cc1` [Butylparaben, butylparaben], on RORγ [1], the activation at 1 µM came to 5 ± 4% and the fold induction at 10 µM was > 1.5.

As for `O=C(c1ccccc1)c1ccc(O)cc1O` [benzophenone-1], the “RORγ agonistic effect (in words, discussion)” value at RORγ [1] (micromolar concentrations) is “only weak RORγ agonistic effect”.

On to `COc1ccc(C(=O)c2ccccc2)c(O)c1` [benzophenone-3], for which the “RORγ agonistic activity (in words)” value at RORγ [1] is “agonistic activity”. Also, in data set [7], the “concentration in breast milk” value was 779.9 ng/g milk, the concentration in serum is 304 ng/mL and the concentration in urine is 300 ng/mL. Further, the skin penetration entry in data set [6] (human skin, ref Benson et al., 2005, Fernandez et al., 2002) is reported as “penetrate the human skin efficiently”.

Consider `O=C(Oc1ccccc1)c1ccc(O)cc1` [Phenylparaben, phenylparaben], for which, on RORγ [1], the activation at 1 µM is 5 ± 2% and the fold induction at 10 µM is > 1.5.

Turning to `CCCCCCCOC(=O)c1ccc(O)cc1` [Heptylparaben, heptylparaben], at RORγ [1], the activation at 1 µM worked out at 5 ± 5% and the fold induction at 10 µM is > 1.5.

As to `O=C(OCc1ccccc1)c1ccccc1O` [Benzylsalicylate], at RORγ [1], the activation at 1 µM was 18 ± 3% and the “RORγ agonistic activity (in words)” value is on record as “significant agonistic activity”. In addition, the IL-17A transcription entry in data set [2] (10 μM, vs vehicle control) is reported as “did not significantly enhance”. In data set [3] (10 μM, vs vehicle control), the IL-22 transcription entry is recorded as “did not significantly enhance”. Moreover, on RORγ [4], the “Reversal of the SR2211-mediated inhibition of RORγ transactivation” value is given as “restore the suppressed RORγ activity in a concentration-dependent manner”. In addition, the estrogenic activity entry with estrogenic activity (setting [8]) is “Estrogenic activity”.
